The results in this text go back to ChEMBL document CHEMBL1201862, “PubChem BioAssay data set” (2004).

Assay in all cases: NCI anticancer screen, dose series, 48 h
The subject of experiment [1] is ACHN.
Experiment [2] relates to HCT-15.
For experiment [3], the system named is IGROV-1.
Experiment [4] deals with K562.
Experiment [5] relates to KM12.
In experiment [6] the test system is M14.
Experiment [7] concerns OVCAR-3.
Experiment [8] relates to RXF 393.
For experiment [9], the system named is SK-MEL-2.
Experiment [10] relates to SK-MEL-5.
In experiment [11] the test system is SN12C.
The test system of experiment [12] is SNB-19.
Experiment [13] concerns SNB-75.
The test system of experiment [14] is UACC-62.
Experiment [15] deals with HOP-92.
Experiment [16] deals with OVCAR-5.

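Five compound concentrations were applied to cells in 96-well plates for 48 hours; endpoints were derived by simple linear interpolation of the resulting dose-response curve. GI50 marks 50% less growth.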 Calls of active or inactive are those of the source. Rule as the data show it: active = GI50 up to about 1.1 µM and inactive = higher.

For `CNS(=O)(=O)NN(C)S(=O)(=O)c1ccc(Br)cc1`, the GI50 is > 100 µM (inactive) in experiment [1]; above 100 µM in experiment [2]; > 100 µM (inactive) in experiment [3]; > 100 µM (inactive) in [4]; > 100 µM (inactive) in [5]; > 100 µM (inactive) in experiment [6]. Further, the GI50 in experiment [7], in experiment [8], in experiment [9], in [10], in [11] and in experiment [12] was > 100 µM (inactive) in each case. In addition, the GI50 in experiment [13] and in [14] was > 100 µM (inactive) each time.

Turning to `COC1=CC(=O)C2C(C1=O)[C@@H]1c3ccccc3OC(C)(C)[C@H]21` (stereo not given in full), the GI50 in experiment [1] is 14.2 µM (inactive); in experiment [2] it was 19.9 µM; in experiment [15] it was 20.5 µM (inactive); in experiment [3], > 10 µM (inactive); in experiment [4], 19 µM (inactive); in [5], 68.1 µM (inactive). The GI50 in experiment [6] was 18.7 µM (inactive); in experiment [7] it was 15.1 µM (inactive); in experiment [16], 40.8 µM (inactive); in [8], 14.1 µM (inactive); in [9], 26.3 µM (inactive); in experiment [10] it was 27.4 µM (inactive). Besides, the values for the GI50 in [12], in experiment [13] and in [14] were 7.73 µM (inactive), 10.6 µM (inactive) and > 10 µM (inactive), respectively.

For the compound `O=C(O)CCSC(=O)Nc1ccc(/N=N/c2ccccc2)cc1`, the GI50 in experiment [1] is 43.6 µM (inactive); in experiment [2], above 100 µM; in experiment [15] it was > 100 µM (inactive); in experiment [3], 92.9 µM (inactive); in experiment [4], 80.5 µM (inactive); in [5], > 100 µM (inactive). Also, the GI50 in experiment [6], in [7], in experiment [16], in experiment [8], in [10] and in [11] was > 100 µM (inactive) throughout. In addition, the GI50 was > 100 µM (inactive) in experiment [12], > 100 µM (inactive) in [13] and 59.4 µM (inactive) in experiment [14].

`Cc1c(C(=O)CSc2nc3cc([N+](=O)[O-])ccc3[nH]2)c(=O)n(-c2ccccc2)n1C`: the GI50 is > 100 µM (inactive) in [1]; above 100 µM in experiment [2]; > 100 µM (inactive) in [15]; > 100 µM (inactive) in [3]; > 100 µM (inactive) in experiment [5]; > 100 µM (inactive) in experiment [6]. Also, the GI50 is 71.8 µM (inactive) in experiment [7]; > 100 µM (inactive) in experiment [16]; > 100 µM (inactive) in [9]; > 100 µM (inactive) in experiment [10]; > 100 µM (inactive) in experiment [11]; > 100 µM (inactive) in experiment [12]. For the same compound, in [13], the GI50 is > 100 µM (inactive).

For the compound `Cc1c(N2CCOCC2)nc2ccc(Cl)cc2c1-c1ccccc1`, the GI50 in experiment [1] was 69 µM (inactive); in experiment [2] it was 42.6 µM; in [15] it was 42.7 µM (inactive); in experiment [3], > 100 µM (inactive); in [4], 31.6 µM (inactive); in experiment [5] it was 87.9 µM (inactive). The GI50 is > 100 µM (inactive) in experiment [6]; 64.7 µM (inactive) in [7]; 62.2 µM (inactive) in experiment [8]; > 100 µM (inactive) in experiment [9]; 21 µM (inactive) in experiment [10]; 47.8 µM (inactive) in experiment [11]. Besides, the figures for the GI50 in [12], in experiment [13] and in [14] were > 100 µM (inactive), 31.4 µM (inactive) and > 100 µM (inactive), respectively.

For `Cc1cc2c(=O)c3ccc(Cl)cc3[nH]c2c(C(N)=O)c1C`, the GI50 in experiment [1] was > 100 µM (inactive); in experiment [2], above 100 µM; in experiment [15] it was > 100 µM (inactive); in experiment [3] it was > 100 µM (inactive); in experiment [4], 83.2 µM (inactive); in [5], > 100 µM (inactive). Moreover, the GI50 in experiment [6], in experiment [7], in [16], in [9], in [10] and in experiment [11] was > 100 µM (inactive) each time. Besides, the GI50 is > 100 µM (inactive) in [12], 35.5 µM (inactive) in experiment [13] and > 100 µM (inactive) in experiment [14].

Regarding `COC(=O)/C(C#N)=C(\N)C(Cl)(Cl)Cl`, the GI50 was 2.37 µM (inactive) in experiment [1]; 2.2 µM in experiment [2]; 2.99 µM (inactive) in [15]; 0.442 µM (active) in [4]; 4.32 µM (inactive) in experiment [5]; 1.43 µM (inactive) in experiment [6]. Further, the GI50 in experiment [7] was 3.3 µM (inactive); in [8], 1.61 µM (inactive); in experiment [9], 5.53 µM (inactive); in experiment [10], 1.69 µM (inactive); in experiment [11], 2.87 µM (inactive); in experiment [12], 40.8 µM (inactive). The GI50 is 3.85 µM (inactive) in experiment [13] and 1.37 µM (inactive) in experiment [14].

`COc1cc(NCC(C#N)C#N)ccc1/N=N/c1ccc([N+](=O)[O-])cc1`: the GI50 is > 100 µM (inactive) in experiment [1]; above 100 µM in [2]; > 100 µM (inactive) in experiment [3]; 91.2 µM (inactive) in experiment [4]; > 100 µM (inactive) in [5]; > 100 µM (inactive) in experiment [6]. The GI50 was 64.3 µM (inactive) in experiment [7]; > 100 µM (inactive) in [16]; > 100 µM (inactive) in experiment [8]; > 100 µM (inactive) in [9]; > 100 µM (inactive) in [10]; > 100 µM (inactive) in experiment [11]. For the same compound, the GI50 in experiment [12] is 65.5 µM (inactive); in experiment [13], 30.7 µM (inactive); in [14] it was > 100 µM (inactive).

Take `CCCN1CN(C(C(=O)N[C@@H]2C(=O)N3C2SC(C)(C)C3C(=O)O)c2ccccc2)CSC1=S` (stereo not given in full): the GI50 in [1] is > 100 µM (inactive); in experiment [2] it was 80.5 µM; in experiment [15], > 100 µM (inactive); in [3], > 100 µM (inactive); in experiment [4] it was 41.6 µM (inactive); in experiment [5], > 100 µM (inactive). The GI50 in experiment [6] was > 100 µM (inactive); in experiment [7], 32.2 µM (inactive); in [16], > 100 µM (inactive); in [9] it was > 100 µM (inactive); in [10] it was > 100 µM (inactive); in experiment [11], > 100 µM (inactive). Moreover, the GI50 in experiment [12], in [13] and in [14] was > 100 µM (inactive) in each case.

As to `O=C1CC2(C[C@@H]3CCCCCCCCC[C@@H](C3)C2)N1` (stereo not given in full), the GI50 was 15.5 µM (inactive) in experiment [1]; 17.7 µM in experiment [2]; 10.8 µM (inactive) in experiment [15]; 12.9 µM (inactive) in experiment [3]; 20.8 µM (inactive) in experiment [4]; 17.8 µM (inactive) in experiment [5]. Also, the GI50 in [6] is 14.8 µM (inactive); in [16], 15.4 µM (inactive); in experiment [8] it was 16.2 µM (inactive); in experiment [9] it was 19.8 µM (inactive); in experiment [10], 16.4 µM (inactive); in [11], 16.8 µM (inactive). In addition, the values for the GI50 in experiment [12], in [13] and in experiment [14] were 20 µM (inactive), 6.71 µM (inactive) and 15.8 µM (inactive), respectively.

With `NC(CCSC(F)F)C(=O)O` (stereo not given), the GI50 in experiment [1], in [15], in [3], in [4], in experiment [5] and in [6] was > 100 µM (inactive) each time. The GI50 in [7], in experiment [16], in [8], in experiment [9], in experiment [10] and in [11] was > 100 µM (inactive) in each case. The GI50 in experiment [12], in experiment [13] and in experiment [14] was > 100 µM (inactive) each time.

For `CCOc1ccc(/C=C/C(=O)c2sc(NNC(C)=O)nc2C)cc1`, the GI50 in experiment [1] was > 100 µM (inactive); in [2] it was above 100 µM; in [15] it was > 100 µM (inactive); in experiment [3], > 100 µM (inactive); in [4], > 100 µM (inactive); in experiment [5] it was > 100 µM (inactive). Besides, the GI50 in experiment [7], in experiment [16], in [8], in experiment [9], in experiment [10] and in experiment [11] was > 100 µM (inactive) in each case. For the same compound, the GI50 in experiment [12], in experiment [13] and in experiment [14] was > 100 µM (inactive) in each case.

For `CCOC(=O)N[C@@H]1C(CC(=O)OC)O[C@H]2OC(C)(C)O[C@H]21` (stereo not given in full), the GI50 is > 100 µM (inactive) in experiment [1]; above 100 µM in experiment [2]; > 100 µM (inactive) in [15]; > 100 µM (inactive) in experiment [3]; > 100 µM (inactive) in [4]; > 100 µM (inactive) in experiment [5]. The GI50 in experiment [6], in experiment [7], in experiment [16], in experiment [8], in experiment [9] and in [10] was > 100 µM (inactive) in each case. Moreover, the GI50 in [11], in experiment [13] and in experiment [14] was > 100 µM (inactive) in each case.

On to `COc1ccc2cc3[n+](cc2c1O)CCc1cc2c(cc1-3)OCO2` [BERBERRUBINE CHLORIDE], for which the GI50 in [1] is 79.8 µM (inactive); in [2] it was above 100 µM; in experiment [3], > 100 µM (inactive); in experiment [4], > 100 µM (inactive); in [5] it was > 100 µM (inactive); in experiment [6], > 100 µM (inactive). The GI50 in experiment [7], in [16], in experiment [8], in experiment [9], in experiment [11] and in experiment [12] was > 100 µM (inactive) each time. The GI50 in experiment [13] and in experiment [14] was > 100 µM (inactive) each time.
